{
  "source": "patent US20060160894A1",
  "about": "“Benzamides as ppar modulators” (LABORATORIOS S.A.L.V.A.T.,S.A., priority 2003, published 2006)",
  "key": {"[1]": {"molecular_target": "T1, PPARγ LBD (Homo sapiens, UniProt P37231)", "T1 construct": "expressed in transfected cells; host or cells: COS-7", "T1 sequence (P37231 238-503 limits assumed)": "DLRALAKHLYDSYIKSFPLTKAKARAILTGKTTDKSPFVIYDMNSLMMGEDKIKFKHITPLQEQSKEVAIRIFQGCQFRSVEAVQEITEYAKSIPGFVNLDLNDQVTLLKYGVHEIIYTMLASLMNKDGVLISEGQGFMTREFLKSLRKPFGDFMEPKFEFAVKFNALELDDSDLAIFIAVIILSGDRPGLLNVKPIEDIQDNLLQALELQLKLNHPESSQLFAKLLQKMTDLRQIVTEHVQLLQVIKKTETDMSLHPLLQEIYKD", "experiment": "LBD-hPPARs transactivation assay (GAL4-LBD luciferase reporter in COS-7 cells)", "type": "cell-based", "conditions": "48 h", "text": "LBD-hPPARs Transactivation Assay\nCOS-7 cells were cultivated in 24-well plates and transfected with the pFACMV plasmids that encode the chimeric proteins containing the GAL4 DNA binding domain fused to the PPARγ LBD. The reporter plasmid for the foregoing constructions was pFR-Luc, which contains five repetitions of the GAL4-response element in front of a promoter that controls the transcription of the luciferase gene. Lipofectamine was used as a transfection agent.\nThe plasmids of the chimeric receptors and the reporter gene were inserted in the cells by transitory transfection in COS-7 cells in culture."}, "[2]": {"molecular_target": "T2, GST-hPPARα (Homo sapiens, UniProt Q07869)", "T2 construct": "the complete cDNA of the […] human PPARs were cloned into pGEX4T2; made in house; host or cells: Escherichia coli BL21 (DE3)", "T2 sequence (Q07869 1-468)": "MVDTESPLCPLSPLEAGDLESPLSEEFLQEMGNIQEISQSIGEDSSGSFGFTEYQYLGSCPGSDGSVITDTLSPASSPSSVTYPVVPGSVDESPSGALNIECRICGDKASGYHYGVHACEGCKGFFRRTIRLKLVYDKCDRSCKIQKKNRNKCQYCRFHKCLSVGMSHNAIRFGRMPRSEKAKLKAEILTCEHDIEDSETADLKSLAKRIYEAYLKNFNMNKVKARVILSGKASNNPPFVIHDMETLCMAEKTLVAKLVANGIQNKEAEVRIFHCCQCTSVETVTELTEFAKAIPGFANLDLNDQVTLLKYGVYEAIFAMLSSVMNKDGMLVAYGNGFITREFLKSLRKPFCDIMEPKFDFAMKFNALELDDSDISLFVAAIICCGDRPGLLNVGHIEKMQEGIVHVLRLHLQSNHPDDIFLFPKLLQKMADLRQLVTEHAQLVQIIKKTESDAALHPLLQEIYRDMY", "experiment": "GST-hPPARα binding ([3H]-GW2433 displacement)", "text": "Cloning of Human PPARα, PPARδ and PPARγ2\nThe human PPARs cDNAs were amplified through RT-PCR. For hPPARα, RNA was obtained from HepG2 cells treated with linoleic acid; for h PPARδ, RNA was obtained from untreated HepG2 cells; for hPPARγ2, RNA was obtained from human white adipose tissue. Each amplified fragment was cloned into pBluescript (Stratagene®) and sequenced. One clone for each construction was selected and used as template for further subcloning and PCR amplifications.\nGST-Fused Protein Construction\nTo generate these chimeric proteins, the complete cDNA of the […] human PPARs were cloned into pGEX4T2 (Amersham Biosciences). The fragment was obtained from the pBluescript-cDNAs clones digested with endonucleases. To assess the plasmid identity and to ensure the in-phase cloning of the proteins, pGEXs constructions were sequenced. […] Receptor purity was visualized by SDS-PAGE and protein content was determined by Bradford method. […]\nUsing 96-well culture plates, PPARα or PPARδ (5 μg) were diluted to a total volume of 100 μL with buffer consisting of 50 mM HEPES (pH: 7.0), 50 mM KCl, 5 mM EDTA and 10 mM DTT, in the presence of [3H]-GW2433 (100 and 50 nM for PPARα and PPARδ, respectively). […] Eluted radioactivity was quantitated by liquid scintillation counting in a Microbeta counter (Perkin Elmer)."}, "[3]": {"molecular_target": "T3, GST-hPPARγ2 (Homo sapiens, UniProt P37231)", "T3 construct": "the complete cDNA of the […] human PPARs were cloned into pGEX4T2; made in house; host or cells: Escherichia coli BL21 (DE3)", "T3 sequence (P37231 1-505)": "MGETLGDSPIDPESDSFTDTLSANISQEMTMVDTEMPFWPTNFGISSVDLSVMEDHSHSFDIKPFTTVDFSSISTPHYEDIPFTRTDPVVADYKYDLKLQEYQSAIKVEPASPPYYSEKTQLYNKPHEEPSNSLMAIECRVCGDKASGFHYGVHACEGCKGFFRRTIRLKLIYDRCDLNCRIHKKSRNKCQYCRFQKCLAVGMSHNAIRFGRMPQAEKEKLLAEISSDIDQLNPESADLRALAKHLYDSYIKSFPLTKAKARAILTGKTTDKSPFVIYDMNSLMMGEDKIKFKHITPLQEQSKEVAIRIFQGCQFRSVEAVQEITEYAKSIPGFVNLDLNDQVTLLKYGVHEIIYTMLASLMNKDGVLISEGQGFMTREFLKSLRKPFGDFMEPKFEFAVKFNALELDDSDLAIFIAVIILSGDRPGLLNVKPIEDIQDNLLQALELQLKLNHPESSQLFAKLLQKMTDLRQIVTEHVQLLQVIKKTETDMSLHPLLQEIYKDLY", "experiment": "Assay of binding to the PPARγ2 ([3H]BRL-49853 displacement)", "procedure": "Assay of Binding to the PPARγ2\nThe cDNA encoding for the open reading frame of the hPPARγ2 is amplified by PCR (polymerase chain reaction) and inserted in the plasmid pGEX-4T-2.\nThe reaction mixture was transferred to a Multiscreen Durapore (Millipore) microplate containing glutathione-Sepharose 4B in every well. The reaction mixture was left to incubate with the resin during 10 min, and then centrifuged at 735 g during 2 min. To dissociate the receptor bound to the resin, reduced glutathione 10 mM is added and incubated during 10 min. The receptor was eluted by centrifugation. Then, 800 μL of scintillation liquid were added to the elution and the contained radioactivity was quantified by liquid scintillation spectroscopy (Microbeta Wallac, Perkin Elmer)."}, "[4]": {"conditions": "Table 19, GST-hPPARγ2, [3H]BRL-49853 100 nM, read-out: Affinity PPARγ(1)"}},
  "note": "Where two headings read alike, the source gives them in different places.",
  "data": [
    {"smiles": "O=C(N[C@@H](Cc1ccc(OCc2ccccc2)cc1)C(=O)O)c1ccc(OCc2ccccc2-c2ccccc2)cc1", "note": "[Example 184, (2S)-3-(4-Benzyloxyphenyl)-2-[4-(biphenyl-2-ylmethoxy)benzoylamino]propionic acid]", "values": [
      {"measurement": "Functional activity PPARγ", "setting": "[1]", "result": "Antagonist"},
      {"measurement": "Ki", "setting": "[2]", "result": "> 3", "unit": "µM"},
      {"measurement": "Ki", "setting": "[3]", "result": "< 1000", "unit": "nM"}
    ]},
    {"smiles": "Cc1nc2ccccc2nc1OCCOc1ccc(C(=O)N[C@@H](Cc2ccc(F)cc2)C(=O)O)cc1", "note": "[Example 192, (2S)-3-(4-Fluorophenyl)-2-{4-[2-(3-methylquinoxalin-2-yloxy)ethoxy]benzoylamino}propionic acid]", "values": [
      {"measurement": "Functional activity PPARγ", "setting": "[1]", "result": "Partial agonist"},
      {"measurement": "Ki", "setting": "[3]; [4]", "result": "> 3000", "unit": "nM"}
    ]},
    {"smiles": "CCCCc1ccc(COc2ccc(C(=O)N[C@@H](CC3CCCCC3)C(=O)O)cc2)cc1", "note": "[Example 210, (2S)-2-[4-(4-Butylbenzyloxy)benzoylamino]-3-cyclohexylpropionic acid]", "values": [
      {"measurement": "Functional activity PPARγ", "setting": "[1]", "result": "Agonist"},
      {"measurement": "Ki", "setting": "[3]; [4]", "result": "< 1000", "unit": "nM"}
    ]},
    {"smiles": "CCCCc1ccc(COc2ccc(C(=O)N(CCC(=O)O)Cc3cccc(OCc4ccccc4)c3)cc2)cc1", "note": "[Example 218, 3-{(3-Benzyloxybenzyl)-[4-(4-butylbenzyloxy)benzoyl]amino}propionic acid]", "values": [
      {"measurement": "Functional activity PPARγ", "setting": "[1]", "result": "Antagonist"},
      {"measurement": "Ki", "setting": "[3]; [4]", "result": "< 1000", "unit": "nM"}
    ]},
    {"smiles": "CCCCOc1ccc(COc2ccc(C(=O)N[C@@H](CC3CCCCC3)C(=O)O)cc2)cc1", "note": "[Example 237, (2S)-2-[4-(4-Butoxybenzyloxy)benzoylamino]-3-cyclohexylpropionic acid]", "values": [
      {"measurement": "Functional activity PPARγ", "setting": "[1]", "result": "Partial agonist"},
      {"measurement": "Ki", "setting": "[3]; [4]", "result": "< 1000", "unit": "nM"}
    ]},
    {"smiles": "O=C(N[C@@H](Cc1ccc(OCc2ccccc2)cc1)C(=O)O)c1ccc(OCc2ccccc2Br)cc1", "note": "[Example 238, (2S)-3-(4-Benzyloxyphenyl)-2-[4-(2-bromobenzyloxy)benzoylamino]propionic acid]", "values": [
      {"measurement": "Functional activity PPARγ", "setting": "[1]", "result": "Antagonist"},
      {"measurement": "Ki", "setting": "[3]; [4]", "result": "< 1000", "unit": "nM"}
    ]},
    {"smiles": "Cc1ccccc1COc1ccc(C(=O)N[C@@H](Cc2ccc(OCc3ccccc3)cc2)C(=O)O)cc1", "note": "[Example 243, (2S)-3-(4-Benzyloxyphenyl)-2-[4-(2-methylbenzyloxy)benzoylamino]propionic acid]", "values": [
      {"measurement": "Functional activity PPARγ", "setting": "[1]", "result": "Antagonist"},
      {"measurement": "Ki", "setting": "[3]; [4]", "result": "< 1000", "unit": "nM"}
    ]},
    {"smiles": "Cc1nc2ccccc2nc1OCCOc1ccc(C(=O)N[C@@H](Cc2ccc(OCc3ccccc3)cc2)C(=O)N(C)C)cc1", "note": "[Example 267, N-[(1S)-2-(4-Benzyloxyphenyl)-1-dimethylcarbamoylethyl]-4-[2-(3-methylquinoxalin-2-yloxy)ethoxy]benzamide]", "values": [
      {"measurement": "Functional activity PPARγ", "setting": "[1]", "result": "Partial agonist"},
      {"measurement": "Ki", "setting": "[3]; [4]", "result": "1000 to 3000", "unit": "nM"}
    ]}
  ]
}
